The target of one experiment is T1, COX-2 (Ovis aries, UniProt P79208).
T1 construct: purchased Cayman 760111
T1 sequence (P79208 17-603): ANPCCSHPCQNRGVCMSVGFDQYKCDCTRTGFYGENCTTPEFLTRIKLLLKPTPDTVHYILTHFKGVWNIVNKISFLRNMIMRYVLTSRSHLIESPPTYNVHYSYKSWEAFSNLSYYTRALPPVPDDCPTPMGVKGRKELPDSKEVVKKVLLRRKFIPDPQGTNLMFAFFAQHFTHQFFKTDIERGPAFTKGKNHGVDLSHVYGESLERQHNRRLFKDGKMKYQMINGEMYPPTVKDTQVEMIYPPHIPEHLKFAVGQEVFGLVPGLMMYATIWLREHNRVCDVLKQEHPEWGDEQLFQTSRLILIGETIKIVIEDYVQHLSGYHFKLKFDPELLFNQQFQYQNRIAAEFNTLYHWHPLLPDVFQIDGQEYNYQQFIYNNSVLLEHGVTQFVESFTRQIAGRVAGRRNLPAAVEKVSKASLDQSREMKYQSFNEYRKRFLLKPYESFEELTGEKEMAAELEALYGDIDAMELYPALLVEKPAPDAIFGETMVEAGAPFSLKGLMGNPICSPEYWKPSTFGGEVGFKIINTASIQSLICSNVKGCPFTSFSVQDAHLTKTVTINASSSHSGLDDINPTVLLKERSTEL
Briefly: Colorimetric COX (ovine) inhibitor screening assay, COX-2. The class given is biochemical. The settings on record: read-out: Percentage of COX inhibition (%) COX-2. On the procedure:
(§1) Cyclooxygenase activity assay was performed according to Yang et al., with slight modification. […] The assay was conducted by monitoring the appearance of oxidized N, N, N’, N’- tetramethyl-p-phenediamine (TMPD) at […]. […] The plate was shaken for a few seconds and incubated for 5 min at 25°C. 20 μl of the colorimetric substrate solution (TMPD) was added to all of the wells. 20 μl of arachidonic acid was added to all the wells. The plate was shaken for a few seconds and incubated for 5 min at 25°C. The absorbance was measured at 590 nm using a microplate reader. Average absorbance was calculated for all the samples (n = 3) in order to determine the percentage of inhibition. The calculation of inhibitory percentage is as portrayed below:
(§2) %inhibition=100%initialactivity‒inhibitorwells/100%initialactivity×100
(§3) In mouse sponge implantation assay, statistical analysis was performed using SPSS version 16. One-way Analysis of Variance (ANOVA) with post-hoc test of Least Significant Difference (LSD) were utilised with P < 0.05 was considered to be statistically significant. The results were reported as mean ± SEM. For in vitro studies, average of the results obtained was determined in order to construct a graph, whereby IC50 of each groups were identified, respectively. IC50 was calculated using GraphPad Prism 5 software. Data were reported as mean ± SEM.

Another experiment has as its target T2, COX-1 (Ovis aries, UniProt P05979).
T2 construct: purchased Cayman 760111
T2 sequence (P05979 25-600): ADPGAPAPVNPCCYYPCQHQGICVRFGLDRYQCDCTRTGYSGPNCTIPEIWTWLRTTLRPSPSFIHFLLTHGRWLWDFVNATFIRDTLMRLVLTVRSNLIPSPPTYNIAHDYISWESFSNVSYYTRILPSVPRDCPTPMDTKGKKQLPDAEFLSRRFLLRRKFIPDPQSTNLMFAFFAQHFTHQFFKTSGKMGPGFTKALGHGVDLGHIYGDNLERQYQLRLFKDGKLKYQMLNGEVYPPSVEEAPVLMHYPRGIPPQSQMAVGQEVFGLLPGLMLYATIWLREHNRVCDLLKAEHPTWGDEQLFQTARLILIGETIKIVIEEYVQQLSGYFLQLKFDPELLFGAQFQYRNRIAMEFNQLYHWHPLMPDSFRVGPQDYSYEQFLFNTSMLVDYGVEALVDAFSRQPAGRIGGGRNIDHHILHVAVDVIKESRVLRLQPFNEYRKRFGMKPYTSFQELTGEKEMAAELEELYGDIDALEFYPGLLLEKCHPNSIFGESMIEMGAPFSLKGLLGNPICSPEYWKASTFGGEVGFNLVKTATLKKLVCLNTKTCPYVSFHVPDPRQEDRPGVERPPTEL
The experiment in a line: Colorimetric COX (ovine) inhibitor screening assay, COX-1. In kind it is biochemical. The settings on record: n = 3. On the procedure: as §1, §2, §3

The target of experiment [1] is T3, Soybean lipoxygenase type I-B (Glycine max, UniProt P08170).
T3 construct: purchased Sigma Aldrich
T3 sequence (P08170 1-839): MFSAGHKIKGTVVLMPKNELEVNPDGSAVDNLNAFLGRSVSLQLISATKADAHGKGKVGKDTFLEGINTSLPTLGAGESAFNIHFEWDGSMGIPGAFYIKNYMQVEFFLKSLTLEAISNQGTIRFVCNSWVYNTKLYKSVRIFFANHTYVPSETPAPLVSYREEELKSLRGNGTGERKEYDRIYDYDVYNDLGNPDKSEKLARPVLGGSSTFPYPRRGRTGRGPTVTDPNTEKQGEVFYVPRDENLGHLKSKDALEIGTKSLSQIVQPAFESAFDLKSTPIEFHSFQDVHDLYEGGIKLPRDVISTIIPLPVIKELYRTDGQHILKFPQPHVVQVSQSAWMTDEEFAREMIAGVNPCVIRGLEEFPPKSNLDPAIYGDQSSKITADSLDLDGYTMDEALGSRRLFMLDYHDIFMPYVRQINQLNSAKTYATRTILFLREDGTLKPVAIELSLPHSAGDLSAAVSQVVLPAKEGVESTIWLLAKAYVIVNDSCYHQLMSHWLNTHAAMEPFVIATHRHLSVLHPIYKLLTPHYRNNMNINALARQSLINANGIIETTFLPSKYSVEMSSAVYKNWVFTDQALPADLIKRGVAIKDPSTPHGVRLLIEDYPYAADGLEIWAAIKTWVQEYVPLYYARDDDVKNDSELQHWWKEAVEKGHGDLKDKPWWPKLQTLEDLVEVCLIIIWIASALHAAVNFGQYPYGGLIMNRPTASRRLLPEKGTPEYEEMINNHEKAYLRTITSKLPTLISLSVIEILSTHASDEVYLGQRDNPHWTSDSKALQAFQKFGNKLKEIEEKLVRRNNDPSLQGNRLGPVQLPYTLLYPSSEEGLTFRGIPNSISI
Briefly: Soy lipoxygenase inhibitory assay. In kind it is biochemical. On the procedure:
Soy lipoxygenase inhibitory assay was performed according to the method proposed by Azhar-Ul-Haq et al.. Rutin was used as positive control. 160 μl of 100 mM sodium phosphate buffer (pH8.0), 10 μl of ACRH and QRF were dissolved in ethanol in different concentrations (200 μg/mL, 100 μg/mL, 50 μg/mL, 25 μg/mL, and 12.5 μg/mL) and 20 μl of lipoxygenase solution were mixed in the well and incubated for 10 mins at room temperature. The reaction was then initiated by adding 10 μl of linoleic solution and the absorbance was determined at 234 nm after 6 minutes. All concentrations were performed in triplicate. The IC50 value was then calculated.
as §3

In experiment [2] the test system is VEGF-induced blood vessel formation. The experiment in a line: Mouse sponge implantation assay (VEGF-impregnated gelatin sponge, mean vascular density). In kind it is in vivo. The settings on record: 100 ng treatment in VEGF sponge, 14 days; relative to VEGF group.
Protocol: Prior to experimentation, absorbable gelatin sponge was cut (5 mm × 8 mm) and hydrated in sterile PBS overnight at 4°C. […] The sponges were allowed to solidify at room temperature for one hour before commencement of the experiment. Mice were anesthetized with Avertin (10 mL/kg) prior to experimentation. Hardened gel piece was inserted into incised subcutaneous pocket created laterally. The animals were allowed to recuperate for 14 days. After that, the animals were euthanized and the gel piece was harvested and rinsed with normal saline.
The sponge samples were fixed in 10% formalin (v/v) for 7 days and subjected to histopathological analysis. The number of vessels was counted in 15 consecutive fields using a 20X objective and the mean MVD was calculated [19].
In mouse sponge implantation assay, statistical analysis was performed using SPSS version 16. One-way Analysis of Variance (ANOVA) with post-hoc test of Least Significant Difference (LSD) were utilised with P < 0.05 was considered to be statistically significant. The results were reported as mean ± SEM. […] Data were reported as mean ± SEM.

We go through three compounds from article PMC4000009, “Ardisia crispa roots inhibit cyclooxygenase and suppress angiogenesis” (BMC Complementary and Alternative Medicine, 2014).

As a reminder, the inhibition is how much of the control response was suppressed. Broadly, the IC50 is the midpoint of a concentration-inhibition curve. Lower therefore signals greater potency.

For `CC(=O)Oc1ccccc1C(=O)O` [Aspirin], the inhibition at 12.5 µg/mL on COX-2 is 33.9 ± 1.07%. Besides, at COX-2, the inhibition at 25 µg/mL is 51.38 ± 0.154%. On COX-2, the inhibition at 50 µg/mL was found to be 54.29 ± 0.307%. Further, the inhibition at 100 µg/mL on COX-2 was found to be 59.05 ± 0.153%. Besides, the inhibition at 200 µg/mL on COX-2 stood at 62.42 ± 0.154%. Besides, the “Percentage of COX inhibition (%) COX-1” value at COX-1 (12.5 μg/ml) was 27.778 ± 0.505%; at COX-1 (25 μg/ml), 36.027 ± 1.347%; at COX-1 (50 μg/ml), 37.879 ± 0.842%; at COX-1 (100 μg/ml), 40.067 ± 1.347%; on COX-1 (200 μg/ml) it was 46.465 ± 0.505%. In experiment [1], this compound had a half-inhibitory concentration (IC50) of 763 µM.
For the compound `C[C@@H]1O[C@@H](OC[C@H]2O[C@@H](Oc3c(-c4ccc(O)c(O)c4)oc4cc(O)cc(O)c4c3=O)[C@H](O)[C@@H](O)[C@@H]2O)[C@H](O)[C@H](O)[C@H]1O` [Rutin], the 50% inhibitory concentration (IC50) in experiment [1] was 72.7 µM.
Turning to `CC1(C)Cc2c(-c3ccccc3)c(-c3ccc(Cl)cc3)c(CC(=O)O)n2C1` [licofelone], in experiment [2], the “% inhibition (of MVD)” value was determined as 67.14%.
